Assay results: US20080199438A1, “Methods For Suppressing Tumor Proliferation” (DNAVEC RESEARCH INC., priority 2004, published 2008)

How the values were obtained:
Assay type in all cases: cell-based, human
MRC5 cells [1] = assay: FGF-2-mediated secretion of VEGF and HGF with signal transduction inhibitors or neutralizing antibody, ELISA; conditions: MRC5, 10 ng/ml FGF-2, 72 hours; rapamycin 100 ng/ml, U0126 10 μmol/L, Ras-inhibitory peptide 50 μmol/L
Method: (A) Effect of various inhibitors of intracellular signal transduction pathways upon the secretion of VEGF and HGF in MRC5 cells. After 48 hours of preincubation in the presence of 1% FBS, cells were stimulated with 10 ng/ml of human recombinant FGF-2 in the presence or absence of various inhibitors. After 72 hours, the medium was subjected to ELISA. n=3 in each group. *P<0.01.
(C) Increases in FGF-2-mediated VEGF secretion completely depend on PDGFRα. After 48 hours of preincubation in the presence of 1% FBS, MRC5 cells were stimulated with 10 ng/ml of recombinant human FGF-2 in the presence or absence of an anti-PDGFRα neutralizing antibody. After 72 hours, the medium was subjected to ELISA. Similar results were obtained for the expression of HGF (data not shown). *P<0.01.
HSMC (J. Cell Biol., 50: 172-86 (1971)), MRC-5 (ATCC CCL-171), SAS (J. Biol. Chem., 270 (41): 24321-69 (1995)), MH134 (J. Natl. Cancer Inst., 17: 1-21 (1956)), QG56 (Int. J. Cancer, 35 (6): 808-12 (1985)), TF (Cancer, 69 (10): 2589-97 (1992)), KN (Cancer, 69 (10): 2589-97 (1992)), EBC-1 (Am. J. Pathol., 142 (2): 425-31 (1993)), PC9 (Int. J. Cancer, 15 (4): 449-55 (1985)), and COS7 Cells (ATCC CRL-1651) were purchased from American Type Culture Collection (ATCC). As mentioned previously, the intracellular signal inhibitors below were each used at the following concentrations for HSMC and MRC5 cells (Onimaru M et al., Circ Res. 91: 723-730 (2002)): Ras, Ras-inhibitory peptide (50 μmol/L, Alexis Japan, Tokyo, Japan); p70S6K, p70S6K inhibitor rapamycin (100 ng/ml, Sigma-Aldrich Japan, Tokyo, Japan); PKC, PKC inhibitor bisindolylmaleimide (100 nmol/L, Sigma); PI3K, PI3K-inhibitor wortmannin (120 nmol/L, Sigma); MEK inhibitor U0126 (10 μmol/L, Promega K.K., Tokyo, Japan); PKA, PKA-inhibitory peptide (1 μmol/L, Calbiochem, San Diego, Calif.); and […], NF-κB inhibitor ALLN (5 μmol/L, Roche Diagnostics, Tokyo, Japan).
(§1) As mentioned previously (Masaki I et al., Circ Res. 90: 966-973 (2002); Onimaru M et al., Circ Res. 91: 723-730 (2002)), the protein contents of the mouse limb muscle, tumor, and culture medium were determined using Quantikine Immunoassay systems for mice (both the 164 and 220 amino acid residue forms are recognized) and human VEGF-A, human FGF-2 (available to both human and mouse), human HGF (R&D Systems Inc., Minneapolis, Minn.), and rat HGF (available to mouse HGF; Institute of Immunology Inc., Tokyo, Japan), according to the manufacturer's instructions.

MRC5 cells [2] = assay: Northern blot of receptor mRNA after growth factor stimulation
Method: (§2) (B) A time course of FGF-2-mediated expression of PDGFRα mRNA in MRC5 cells and HSMCs was analyzed by Northern blotting. After 48 hours of preincubation under serum-free conditions, each of the cell lines was stimulated with FGF-2. Cells were harvested at the time indicated in the figure and then subjected to Northern blot analysis. Bands were visualized and subjected to densitometric analysis using a photoimager. The experience was carried out in duplicate and similar results were obtained.
(§3) Total cellular RNA, isolated using the ISOGEN system (Wako Pure Chemicals, Osaka, Japan), was electrophoresed and transferred onto a nylon membrane. The membranes were hybridized overnight at 60° C. with random-primed [α-^32P]dCTP-labeled probes. The bands were visualized and subjected to densitometry using a photoimager.
(§4) To assess the role of the PDGF-AA signal in the angiogenic response of host vasculature, the FGF-2-mediated induction of VEGF and HGF in human mesenchymal cells (MRC5 and HSMC) cultured under serum-free conditions was investigated. […] In clinical application such as ischemia treatments, angiogenesis might also be induced more effectively by administering both FGF-2 and PDGF-AA, rather than either one alone.

HSMC [3] = assay: as above
Method: as §2, §3, §4

MRC5 cells [4] = assay: Northern blot time course of FGF-2-mediated VEGF mRNA expression; conditions: MRC5, 10 ng/ml FGF-2, Northern blot
Method: (B) A p70S6K inhibitor, Rapamycin (RAPA) stops the later phase of FGF-2-mediated VEGF mRNA expression in MRC5 cells. After 48 hours of preincubation in the presence of 1% FBS, cells were stimulated with 10 ng/ml of recombinant human FGF-2. Cells were harvested at the time indicated in the figure and then subjected to Northern blot analysis. The bands were visualized and subjected to densitometric analysis using a photoimager.
as §3

MRC5 cells [5] = assay: VEGF secretion after stimulation with FGF-2 and/or PDGF-AA, ELISA of culture medium; conditions: MRC5, serum-free, 72 hours
Method: (§5) (A) Recombinant FGF-2 and PDGF-AA work together to increase VEGF secretion from fibroblasts (MRC5) and vascular smooth muscle cells (HSMCs). After 48 hours of preincubation in serum-free conditions, each of the cell lines was stimulated with FGF-2 and/or PDGF-AA. After 72 hours, the cultured medium was subjected to ELISA. n3 in each group. *P<0.01. #P<0.05
as §1, §4

HSMC [6] = assay: as above; conditions: serum-free, 72 hours
Method: as §5, §1, §4

Row | PDGFRα transcription (HSMC [3]) | Compound | FGF-2-mediated upregulation of HGF/SF protein (MRC5 cells [1]) | FGF-2-mediated upregulation of VEGF protein (MRC5 cells [1]) | PDGFRα transcription (MRC5 cells [2]; MRC5, Northern blot) | time course of FGF-2-mediated VEGF expression (MRC5 cells [4]) | release of VEGF into the culture medium (MRC5 cells [5]) | FGFR1 expression (MRC5 cells [2]; data not shown) | level of VEGF in the culture medium (HSMC [6])
1 | – | N#CC(=C(/N)Sc1ccccc1N)/C(C#N)=C(\N)Sc1ccccc1N [MEK inhibitor, U0126, reference compound] | removed these effects | removed these effects | – | – | – | – | –
2 | upregulation | FGF-2: human recombinant fibroblast growth factor-2 used to stimulate cells | upregulated | upregulated | upregulation | biphasic (at three hours and after that) upregulation | stimulated release of VEGF | – | –
3 | – | PDGF-AA: recombinant PDGF-A homodimer used to stimulate cells | – | – | – | – | did not | did not change | upregulated
